According to patent publication US7241799B2, “Cannabimimetic indole derivatives” (University of Connecticut, priority 1999, dated 2007):
Where two headings read alike, the source gives them in different places.

How the values were obtained:
CB2 receptor = target: T1, CB2 receptor (Mus musculus, UniProt P47936); assay: CB2 receptor binding, [3H] CP-55,940 displacement, mouse spleen membranes; settings: for Ki: mouse spleen membranes, [3H] CP-55,940, read-out: Kl CB2 (converted)
T1 construct: membranes were prepared from frozen mouse spleen; from tissue; host or cells: mouse spleen
T1 sequence (P47936 whole entry): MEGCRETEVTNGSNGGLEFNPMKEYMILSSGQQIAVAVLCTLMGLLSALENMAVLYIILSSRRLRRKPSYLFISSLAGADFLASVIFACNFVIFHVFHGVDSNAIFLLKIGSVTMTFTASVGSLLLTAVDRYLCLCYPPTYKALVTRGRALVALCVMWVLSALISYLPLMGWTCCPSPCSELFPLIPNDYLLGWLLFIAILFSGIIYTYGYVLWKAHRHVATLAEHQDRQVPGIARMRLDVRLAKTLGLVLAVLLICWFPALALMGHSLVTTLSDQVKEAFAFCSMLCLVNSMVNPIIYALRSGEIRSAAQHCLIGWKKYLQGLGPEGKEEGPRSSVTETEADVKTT
Description: (§1) The materials were tested for CB2 receptor binding affinity and for CB1 receptor affinity (to determine selectivity for the CB2 receptor). As used herein, “binding affinity” is represented by the IC50 value which is the concentration of an analog required to occupy the 50% of the total number (Bmax) of the receptors. The lower the IC50 value the higher the binding affinity.
(§2) The treated membranes were subsequently used in the binding assay described below. Approximately 30 μg of membranes were incubated in silanized 96-well microtiter plate with TME containing 0.1% essentially fatty acid-free bovine serum albumin (BSA), 0.8 nM [^3H] CP-55,940, and various concentrations of test materials at […] for 1 hour. The samples were filtered using Packard Filtermate 196 and Whatman GF/C filterplates and washed with wash buffer (TME) containing 0.5% BSA. Radioactivity was detected using MicroScint 20 scintillation cocktail added directly to the dried filterplates, and the filterplates were counted using a Packard Instruments Top-Count. Nonspecific binding was assessed using 100 nM CP-55,940. Data collected from three independent experiments performed with duplicate determinations was normalized between 100% and 0% specific binding for [^3H] CP-55,940, determined using buffer and 100 nM CP-55,940. The normalized data was analyzed using a 4-parameter nonlinear logistic equation to yield IC50 values. Data from at least two independent experiments performed in duplicate was used to calculate IC50 values which were converted to Ki values using the assumptions of Cheng et al, Relationship Between the Inhibition Constant (Ki) and the concentration of Inhibitor which causes 50% Inhibition (IC50) of an Enzymatic Reaction, Biochem. Pharmacol., 22, 3099–3102, (1973), which is incorporated by reference herein.
For the CB2 receptor binding studies, membranes were prepared from frozen mouse spleen essentially according to the procedure of P. R. Dodd et al, A Rapid Method for Preparing Synaptosomes: Comparison with Alternative Procedures, Brain Res., 226, 107–118 (1981) which is incorporated by reference herein. Silanized centrifuge tubes were used throughout to minimize receptor loss due to adsorption. The CB2 binding assay was conducted in the same manner as for the CB1 binding assay. The binding affinities (Ki) were also expressed in nanomoles (nM).

CB1 receptor = target: T2, CB1 receptor (Rattus norvegicus, UniProt P20272); assay: CB1 receptor binding, [3H] CP-55,940 displacement, rat forebrain membranes; settings: for Ki: rat forebrain membranes, 0.8 nM [3H] CP-55,940, read-out: Kl CB1; for selectivity for the CB1 receptor: binding selectivity CB1 versus CB2, from the results in the TABLES
T2 construct: membranes were prepared from rat forebrain membranes; from tissue; host or cells: rat forebrain
T2 sequence (P20272 whole entry): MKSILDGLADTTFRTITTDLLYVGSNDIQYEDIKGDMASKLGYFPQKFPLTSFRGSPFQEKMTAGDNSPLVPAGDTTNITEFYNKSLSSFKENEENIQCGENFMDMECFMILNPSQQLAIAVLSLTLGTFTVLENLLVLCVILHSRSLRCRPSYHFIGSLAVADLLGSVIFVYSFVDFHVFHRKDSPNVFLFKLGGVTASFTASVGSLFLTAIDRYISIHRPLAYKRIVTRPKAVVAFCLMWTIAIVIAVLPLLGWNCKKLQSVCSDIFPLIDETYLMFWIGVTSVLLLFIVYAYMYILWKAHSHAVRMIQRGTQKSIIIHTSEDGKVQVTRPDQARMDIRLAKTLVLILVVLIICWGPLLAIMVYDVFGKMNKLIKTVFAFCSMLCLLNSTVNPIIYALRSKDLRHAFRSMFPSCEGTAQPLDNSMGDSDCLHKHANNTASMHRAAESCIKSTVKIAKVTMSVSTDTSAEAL
Description: as §1
For the CB1 receptor binding studies, membranes were prepared from rat forebrain membranes according to the procedure of P. R. Dodd et al, A Rapid Method for Preparing Synaptosomes: Comparison with Alternative Procedures, Brain Res., 107–118 (1981). The binding of the novel analogues to the CB1 cannabinoid receptor was assessed as described in W. A. Devane et al, Determination and Characterization of a Cannabinoid Receptor in a Rat Brain, Mol. Pharmacol., 34, 605–613 (1988) and A. Charalambous et al, 5′-azido Δ^8 THC: A Novel Photoaffinity Label for the Cannabinoid Receptor, J. Med. Chem., 35, 3076–3079 (1992) with the following changes. The above articles are incorporated by reference herein.
Membranes, previously frozen at −80° C., were thawed on ice. To the stirred suspension was added three volumes of TME (25 mM Tris-HCl buffer, 5 mM MgCl2 and 1 mM EDTA) at a pH 7.4. The suspension was incubated at 4° C. for 30 min. At the end of the incubation, the membranes were pelleted and washed three times with TME.
as §2

Compound | Ki (CB2 receptor; TABLE 1, racemic samples) [nM] | Ki (CB1 receptor; TABLE 1, racemic samples) [nM] | Ki (CB2 receptor; TABLE 2) [nM] | Ki (CB1 receptor; TABLE 2) [nM] | other results
Cc1c(C(=O)c2ccccc2I)c2ccc([N+](=O)[O-])cc2n1CC1CCCCN1C (racemic) [AM664] | 80 | 40 |  |  | 
Cc1c(C(=O)c2ccccc2I)c2ccc(N)cc2n1CC1CCCCN1C (racemic) [AM665] | 20.3 | 206 |  |  | 
Cc1c(C(=O)c2ccccc2)c2ccc(N=[N+]=[N-])cc2n1CC1CCCCN1C (racemic) [AM671] | 59.1 | 155 |  |  | 
Cc1c(C(=O)c2ccccc2)c2ccc(N=C=S)cc2n1CC1CCCCN1C (racemic) [AM684] | 44.8 | 181 |  |  | 
Cc1c(C(=O)c2ccccc2I)c2ccc(N=[N+]=[N-])cc2n1CC1CCCCN1C (racemic) [AM1215] | 21.9 | 40.7 |  |  | 
Cc1c(C(=O)c2ccccc2I)c2ccc(N=C=S)cc2n1CC1CCCCN1C (racemic) [AM1216] | 25.2 | 210 |  |  | 
CN1CCCCC1Cn1cc(C(=O)c2cccc3ccccc23)c2ccc(N=C=S)cc21 (racemic) [AM1217] | 81.5 | 255 |  |  | 
CN1CCCCC1Cn1cc(C(=O)c2cccc3ccccc23)c2ccc([N+](=O)[O-])cc21 (racemic) [AM1218] | 3.98 | 11.2 |  |  | 
CN1CCCCC1Cn1cc(C(=O)c2cccc3ccccc23)c2ccc(N)cc21 (racemic) [AM1219] | 31.3 | 96.6 |  |  | 
CN1CCCCC1Cn1cc(C(=O)c2cccc3ccccc23)c2ccc(N=[N+]=[N-])cc21 (racemic) [AM1224] | 0.73 | 20.2 |  |  | 
Cc1c(C(=O)c2cccc3ccccc23)c2ccc(N)cc2n1CC1CCCCN1C (racemic) [AM1225] | 38.5 | 440 |  |  | 
Cc1c(C(=O)c2cccc3ccccc23)c2ccc(N=[N+]=[N-])cc2n1CC1CCCCN1C (racemic) [AM1231] | 34.2 | 31.2 |  |  | 
CN1CCCCC1Cn1cc(C(=O)c2cc3ccc4cccc5ccc(c2)c3c45)c2ccccc21 (racemic) [AM1253] | 126 | 60.3 |  |  | 
CN1CCCCC1Cn1cc(C(=O)c2cc(N=[N+]=[N-])ccc2I)c2ccc(N=[N+]=[N-])cc21 (racemic) [AM2209] | 41.8 | 48.8 |  |  | 
CN1CCCCC1Cn1cc(C(=O)c2ccc(I)c3ccccc23)c2ccc(N=[N+]=[N-])cc21 (racemic) [AM2212] | 2.9 | 31 |  |  | 
CN1CCCCC1Cn1cc(C(=O)c2ccc(N=C=S)c3ccccc23)c2ccc(N=C=S)cc21 (racemic) [AM2215] | 99.6 | 235 |  |  | 
CN1CCCCC1Cn1cc(C(=O)c2cc(N=C=S)ccc2I)c2ccc(N=C=S)cc21 (racemic) [AM2223] | 29.9 | 64.8 |  |  | 
CCCCCn1c(C)c(C(=O)c2ccccc2I)c2ccccc21 [AM669] |  |  | 38.6 | 47.2 | 
CCCCCCCn1c(C)c(C(=O)c2ccccc2I)c2ccccc21 [AM672] |  |  | 1510 | 1600 | 
CCCCCn1cc(C(=O)c2ccccc2I)c2ccccc21 [AM679] |  |  | 49.5 | 13.5 | 
CCCCCCn1c(C)c(C(=O)c2ccccc2I)c2ccccc21 [AM682] |  |  | 693 | 332 | 
CCCCn1c(C)c(C(=O)c2ccccc2I)c2ccccc21 [AM683] |  |  | 281 | 272 | 

Compound | Ki (CB2 receptor; TABLE 1, racemic samples) [nM] | Ki (CB1 receptor; TABLE 1, racemic samples) [nM] | Ki (CB2 receptor; TABLE 2) [nM] | Ki (CB1 receptor; TABLE 2) [nM] | other results
CC(=O)OCCCCCn1c(C)c(C(=O)c2ccccc2I)c2ccccc21 [AM689] |  |  | 1020 | 2280 | 
Cc1c(C(=O)c2ccccc2I)c2ccccc2n1CCCCCO [AM690] |  |  | 1970 | 4850 | 
CC(=O)OCCCCCn1cc(C(=O)c2ccccc2I)c2ccccc21 [AM692] |  |  | 1520 | 2660 | 
O=C(c1ccccc1I)c1cn(CCCCCO)c2ccccc12 [AM693] |  |  | 526 | 835 | 
O=C(c1ccccc1I)c1cn(CCCCCF)c2ccccc12 [AM694] |  |  | 1.44 | 0.08 | selectivity for the CB1 receptor (CB1 receptor): high selectivity for the CB1 receptor
Cc1ccc(S(=O)(=O)OCCCCCn2cc(C(=O)c3ccccc3I)c3ccccc32)cc1 [AM697] |  |  | 1120 | 1310 | 
O=C(c1ccccc1I)c1cn(CCCCCI)c2ccccc12 [AM698] |  |  | 315 | 136 | 
O=C(c1ccccc1I)c1cn(CCCCCN=C=S)c2ccccc12 [AM1201] |  |  | 110 | 106 | 
CCCCCn1cc(C(=O)c2cc([N+](=O)[O-])ccc2I)c2ccccc21 [AM1202] |  |  | 22.9 | 98.9 | 
CCCCCn1cc(C(=O)c2cc(N)ccc2I)c2ccccc21 [AM1203] |  |  | 88.9 | 63.6 | 
CCCCCn1cc(C(=O)c2cc(N=C=S)ccc2I)c2ccccc21 [AM1204] |  |  | 3350 | 5660 | 
CCCCCn1cc(C(=O)c2cc(N=[N+]=[N-])ccc2I)c2ccccc21 [AM1205] |  |  | 196 | 117 | 
CCCCCn1cc(C(=O)c2cc(I)ccc2I)c2ccccc21 [AM1206] |  |  | 150 | 105 | 
CN1CCCCC1Cn1cc(C(=O)c2cccc3ccccc23)c2ccccc21 (stereo not shown) [AM1220] | 73.4 | 3.88 |  |  | 
Cc1c(C(=O)c2cccc3ccccc23)c2ccc([N+](=O)[O-])cc2n1CC1CCCCN1C (stereo not shown) [AM1221] | 0.28 | 52.3 |  |  | 
CC(=O)OCCCCCn1cc(C(=O)c2cccc3ccccc23)c2ccc([N+](=O)[O-])cc21 [AM1233] |  |  | 154 | 142 | 
O=C(c1cccc2ccccc12)c1cn(CCCCCO)c2cc([N+](=O)[O-])ccc12 [AM1234] |  |  | 197 | 77.6 | 
O=C(c1cccc2ccccc12)c1cn(CCCCCF)c2cc([N+](=O)[O-])ccc12 [AM1235] |  |  | 20.4 | 1.5 | selectivity for the CB1 receptor (CB1 receptor): high selectivity for the CB1 receptor
CC(=O)OCCCCCn1cc(C(=O)c2cccc3ccccc23)c2ccc(N)cc21 [AM1236] |  |  | 559 | 1130 | 
Nc1ccc2c(C(=O)c3cccc4ccccc34)cn(CCCCCO)c2c1 [AM1237] |  |  | 244 | 837 | selectivity for the CB2 receptor (CB2 receptor; binding selectivity CB2 versus CB1, from the results in the TABLES): high selectivity for the CB2 receptor
O=C(c1cccc2ccccc12)c1cn(CCCCCO)c2cc(I)ccc12 [AM1238] |  |  | 17.3 | 3.1 | 
CN1CCCCC1Cn1cc(C(=O)C23CC4CC(CC(C4)C2)C3)c2ccccc21 (stereo not shown) [AM1248] | 332 | 100 |  |  | 
